Data set [1] has as its system MDA-MB-435S breast cancer cells. The class given is cell-based, human. The procedure: Twelve different fusion constructs were analyzed for anti-cancer activity in vitro against MDA-MB-435S breast cancer cells and for hemolytic activity in vitro to human red blood cells. Fusion constructs of the following sequence were tested:
The peptide conjugates were freshly dissolved in saline and added into cancer cell seeded multi-well plates at increasing concentrations of 0, 0.001, 0.01, 0.1, 1, 2, 5, 10 and 100 μM. Incubations were conducted for 4 h at 37° C. Cell viability was determined using formazan conversion assays (MTT assays). Controls were treated with USP saline or 0.1% TritonX-100™ as reference for 0 and 100% cell death, respectively. Cytotoxicity was evaluated as an IC50 value.

A further data set has as its system human red blood cells. As to the kind of experiment: Hemolytic activity. The format is cell-based. Here is the method: Hemolytic activity was studied by incubating the fusion constructs with human red blood cells at concentrations of 0.01, 0.1, 1, 10 and 50 μM for 2 hours. Saline and 0.1% Triton served as controls.
Hemolytic activity of the compounds was studied by incubating EP-301 and EP-302 with human red blood cells at concentrations of 0.01, 0.1, 1, 10 and 50 μM for 2 hours.

In data set [2] the target is nucleolin expressed on the surface of human cancer cell lines (human, UniProt P19338). The data set can be described thus: cell-based or functional assay.
Where [3] appears, read: MDA-MB-435S, 4 h at 37° C, MTT, read-out: IC50.

Where “and” joins values, the source holds several entries; their conditions need not be identical. Identical values can stand only once. Like-named read-outs stand apart in the source and are kept apart here. Residues, ends and D or L forms follow the SMILES beside them.

In general, IC50 refers to the point on the concentration scale where inhibition reaches its midpoint. Regarding `CC(C)C[C@H](NC(=O)[C@H](CCCNC(=N)N)NC(=O)[C@H](C)NC(=O)[C@H](Cc1ccccc1)NC(=O)[C@H](CCCCN)NC(=O)[C@H](C)NC(=O)[C@H](Cc1ccccc1)NC(=O)[C@H](CCCCN)NC(=O)[C@H](CCCCN)NC(=O)[C@H](C)NC(=O)[C@H](Cc1ccccc1)NC(=O)[C@H](CCCCN)NC(=O)[C@H](C)NC(=O)[C@H](Cc1ccccc1)NC(=O)[C@H](CCCCN)NC(=O)[C@H](CCCCN)NC(=O)[C@H](C)NC(=O)[C@H](Cc1ccccc1)NC(=O)[C@H](CCCCN)NC(=O)[C@H](C)NC(=O)[C@H](Cc1ccccc1)NC(=O)[C@@H](N)CCCCN)C(=O)N[C@@H](Cc1ccccc1)C(=O)N[C@@H](C)C(=O)N[C@@H](CCCCN)C(=O)O` (H-KFAKFAKKFAKFAKKFAKFARLFAK-OH), the IC50 in data set [1] (setting [3]) is 1.23 ± 0.7 µM. Also, in the data set on human red blood cells (human red blood cells, 2 hours), the HA50 was 14.3 µM and 14.3 ± 2.1 µM. As for `CC(C)C[C@H](NC(=O)[C@H](CCCNC(=N)N)NC(=O)[C@H](C)NC(=O)[C@H](CO)NC(=O)[C@H](CCCNC(=N)N)NC(=O)[C@H](CCCNC(=N)N)NC(=O)[C@H](CCC(N)=O)NC(=O)[C@@H]1CCCN1C(=O)[C@H](C)NC(=O)[C@H](CCCNC(=N)N)NC(=O)[C@H](CCCCN)NC(=O)[C@H](CCCCN)NC(=O)[C@H](C)NC(=O)[C@H](Cc1ccccc1)NC(=O)[C@H](CCCCN)NC(=O)[C@H](CCCCN)NC(=O)[C@H](C)NC(=O)[C@H](Cc1ccccc1)NC(=O)[C@H](CCCCN)NC(=O)[C@H](C)NC(=O)[C@H](Cc1ccccc1)NC(=O)[C@H](CCCCN)NC(=O)[C@H](CCCCN)NC(=O)[C@H](C)NC(=O)[C@H](Cc1ccccc1)NC(=O)[C@H](CCCCN)NC(=O)[C@H](C)NC(=O)[C@H](Cc1ccccc1)NC(=O)[C@@H](N)CCCCN)C(=O)N[C@@H](CO)C(=O)N[C@@H](C)C(=O)N[C@@H](CCCCN)C(=O)O` (H-KFAKFAKKFAKFAKKFAKKRAPQRRSARLSAK-OH; N-terminus and C-terminus assumed), the IC50 in data set [1] (4 h) amounted to 7.3 µM. For the same molecule, in the data set with human red blood cells, the HA50 entry was “Not hemolytic”. Consider `CC(C)C[C@H](NC(=O)[C@H](CCCNC(=N)N)NC(=O)[C@H](C)NC(=O)[C@H](CCCNC(=N)N)NC(=O)[C@H](CCCCN)NC(=O)[C@H](C)NC(=O)[C@H](Cc1ccccc1)NC(=O)[C@H](CCCCN)NC(=O)[C@H](CCCCN)NC(=O)[C@H](C)NC(=O)[C@H](Cc1ccccc1)NC(=O)[C@H](CCCCN)NC(=O)[C@H](C)NC(=O)[C@H](Cc1ccccc1)NC(=O)[C@H](CCCCN)NC(=O)[C@H](CCCCN)NC(=O)[C@H](C)NC(=O)[C@H](Cc1ccccc1)NC(=O)[C@H](CCCCN)NC(=O)[C@H](C)NC(=O)[C@H](Cc1ccccc1)NC(=O)[C@@H](N)CCCCN)C(=O)N[C@@H](CCC(N)=O)C(=O)O` (H-KFAKFAKKFAKFAKKFAKRARLQ-OH), for which, in data set [1] (4 h), half-maximal inhibition (IC50) was put at 3.6 µM.

In turn, `CC(C)C[C@H](NC(=O)[C@H](CCCNC(=N)N)NC(=O)[C@H](C)NC(=O)[C@H](CCCNC(=N)N)NC(=O)[C@H](CCCCN)NC(=O)[C@H](C)NC(=O)[C@H](Cc1ccccc1)NC(=O)[C@H](CCCCN)NC(=O)[C@H](CCCCN)NC(=O)[C@H](C)NC(=O)[C@H](Cc1ccccc1)NC(=O)[C@H](CCCCN)NC(=O)[C@H](C)NC(=O)[C@H](Cc1ccccc1)NC(=O)[C@H](CCCCN)NC(=O)[C@H](CCCCN)NC(=O)[C@H](C)NC(=O)[C@H](Cc1ccccc1)NC(=O)[C@H](CCCCN)NC(=O)[C@H](C)NC(=O)[C@H](Cc1ccccc1)NC(=O)[C@@H](N)CCCCN)C(=O)N[C@@H](CCC(N)=O)C(=O)N[C@@H](CCCNC(=N)N)C(=O)N[C@@H](CCCNC(=N)N)C(=O)O` (H-KFAKFAKKFAKFAKKFAKRARLQRR-OH) yielded an IC50 in data set [1] (4 h) of 1.6 ± 0.05 µM. Besides, the HA50 entry in the data set on human red blood cells is recorded as “Not hemolytic”. In data set [1] (4 h), `CC(C)C[C@H](NC(=O)[C@H](CCCNC(=N)N)NC(=O)[C@H](C)NC(=O)[C@H](CCCNC(=N)N)NC(=O)[C@H](CCCCN)NC(=O)[C@H](C)NC(=O)[C@H](Cc1ccccc1)NC(=O)[C@H](CCCCN)NC(=O)[C@H](CCCCN)NC(=O)[C@H](C)NC(=O)[C@H](Cc1ccccc1)NC(=O)[C@H](CCCCN)NC(=O)[C@H](C)NC(=O)[C@H](Cc1ccccc1)NC(=O)[C@H](CCCCN)NC(=O)[C@H](CCCCN)NC(=O)[C@H](C)NC(=O)[C@H](Cc1ccccc1)NC(=O)[C@H](CCCCN)NC(=O)[C@H](C)NC(=O)[C@H](Cc1ccccc1)NC(=O)[C@@H](N)CCCCN)C(=O)N[C@@H](CCC(N)=O)C(=O)N[C@@H](CCCNC(=N)N)C(=O)N[C@@H](CCCNC(=N)N)C(=O)N[C@@H](Cc1ccccc1)C(=O)O` (H-KFAKFAKKFAKFAKKFAKRARLQRRF-OH) displayed an IC50 of 0.87 ± 0.003 µM. For the same molecule, in the data set on human red blood cells, the HA50 entry is listed as “Not hemolytic”. For the molecule `CC(C)C[C@H](NC(=O)[C@H](CCCNC(=N)N)NC(=O)[C@H](C)NC(=O)[C@H](Cc1ccccc1)NC(=O)[C@H](CCCNC(=N)N)NC(=O)[C@H](CCCNC(=N)N)NC(=O)[C@H](CCC(N)=O)NC(=O)[C@H](CC(C)C)NC(=O)[C@H](CCCNC(=N)N)NC(=O)[C@H](CCCCN)NC(=O)[C@H](C)NC(=O)[C@H](Cc1ccccc1)NC(=O)[C@H](CCCCN)NC(=O)[C@H](CCCCN)NC(=O)[C@H](C)NC(=O)[C@H](Cc1ccccc1)NC(=O)[C@H](CCCCN)NC(=O)[C@H](C)NC(=O)[C@H](Cc1ccccc1)NC(=O)[C@H](CCCCN)NC(=O)[C@H](CCCCN)NC(=O)[C@H](C)NC(=O)[C@H](Cc1ccccc1)NC(=O)[C@H](CCCCN)NC(=O)[C@H](C)NC(=O)[C@H](Cc1ccccc1)NC(=O)[C@@H](N)CCCCN)C(=O)N[C@@H](Cc1ccccc1)C(=O)N[C@@H](C)C(=O)N[C@@H](CCCCN)C(=O)O` (H-KFAKFAKKFAKFAKKFAKRLQRRFARLFAK-OH), the IC50 in data set [1] (setting [3]) turned out to be 0.74 ± 0.12 µM.

As to `CC(C)C[C@H](NC(=O)[C@H](CCCNC(=N)N)NC(=O)[C@H](C)NC(=O)[C@H](CO)NC(=O)[C@H](CCCCN)NC(=O)[C@H](C)NC(=O)[C@H](Cc1ccccc1)NC(=O)[C@H](CCCCN)NC(=O)[C@H](CCCCN)NC(=O)[C@H](C)NC(=O)[C@H](Cc1ccccc1)NC(=O)[C@H](CCCCN)NC(=O)[C@H](C)NC(=O)[C@H](Cc1ccccc1)NC(=O)[C@H](CCCCN)NC(=O)[C@H](CCCCN)NC(=O)[C@H](C)NC(=O)[C@H](Cc1ccccc1)NC(=O)[C@H](CCCCN)NC(=O)[C@H](C)NC(=O)[C@H](Cc1ccccc1)NC(=O)[C@@H](N)CCCCN)C(=O)N[C@@H](CO)C(=O)N[C@@H](C)C(=O)N[C@@H](CCCCN)C(=O)O` (H-KFAKFAKKFAKFAKKFAKSARLSAK-OH), in data set [1] (4 h), the IC50 turned out to be 4.1 µM. In the case of `CC(C)C[C@H](NC(=O)[C@H](CCCNC(=N)N)NC(=O)[C@H](C)NC(=O)[C@H](Cc1ccccc1)NC(=O)[C@H](CCCNC(=N)N)NC(=O)[C@H](CCCNC(=N)N)NC(=O)[C@H](CCC(N)=O)NC(=O)[C@H](CC(C)C)NC(=O)[C@H](CCCNC(=N)N)NC(=O)[C@H](C)NC(=O)[C@@H](NC(=O)[C@H](CCCCN)NC(=O)[C@H](C)NC(=O)[C@H](Cc1ccccc1)NC(=O)[C@H](CCCCN)NC(=O)[C@H](CCCCN)NC(=O)[C@H](C)NC(=O)[C@H](Cc1ccccc1)NC(=O)[C@H](CCCCN)NC(=O)[C@H](C)NC(=O)[C@H](Cc1ccccc1)NC(=O)[C@H](CCCCN)NC(=O)[C@H](CCCCN)NC(=O)[C@H](C)NC(=O)[C@H](Cc1ccccc1)NC(=O)[C@H](CCCCN)NC(=O)[C@H](C)NC(=O)[C@H](Cc1ccccc1)NC(=O)[C@@H](N)CCCCN)C(C)C)C(=O)N[C@@H](Cc1ccccc1)C(=O)N[C@@H](C)C(=O)N[C@@H](CCCCN)C(=O)O` (H-KFAKFAKKFAKFAKKFAKVARLQRRFARLFAK-OH), the half-inhibitory concentration (IC50) in data set [1] (4 h) came to 0.4 ± 0.002 µM. Turning to KFAKFAKKFAKFAKKFAKKRAPQRRSARLSAK [KFAKFAKKFAKFAKKFAKK19RAPQRRSARLSAK32], the “IC50 of cytotoxicity (MTT), MDA-MB-435S breast cancer cells, 4 h” value (shortened to “IC50 of cytotoxicity (MTT)”) in data set [2] is 7.3 µM.

As for KFAKFAKKFAKFAKKFAKRARLQ [KFAKFAKKFAKFAKKFAKR19ARLQ23], the “IC50 of cytotoxicity (MTT)” value in data set [2] was 3.6 µM. On to KFAKFAKKFAKFAKKFAKRARLQRRF [KFAKFAKKFAKFAKKFAKR19ARLQRRF26], for which, in data set [2], the “IC50 of cytotoxicity (MTT)” value came to 0.87 µM.

As for KFAKFAKKFAKFAKKFAKFARLFAK [KFAKFAKKFAKFAKKFAKF19ARLFAK25], in data set [2], the “IC50 of cytotoxicity (MTT)” value came out at 1.23 µM. In the case of KFAKFAKKFAKFAKKFAKRLQRRSARLSAK [KFAKFAKKFAKFAKKFAKR19LQRRSARLSAK30], in data set [2], the “IC50 of cytotoxicity (MTT)” value was 2.2 µM. In the case of KFAKFAKKFAKFAKKFAKRLQRRFARLFAK [KFAKFAKKFAKFAKKFAKR19LQRRFARLFAK30], the “IC50 of cytotoxicity (MTT)” value in data set [2] was 0.74 µM.

As to KFAKFAKKFAKFAKKFAKVARLQRRFA [KFAKFAKKFAKFAKKFAKV19ARLQRRFA27], the “IC50 of cytotoxicity (MTT)” value in data set [2] was 0.8 µM. With KFAKFAKKFAKFAKKFAKVARLQRRFARLFAK [KFAKFAKKFAKFAKKFAKV19ARLQRRFARLFAK32], the “IC50 of cytotoxicity (MTT)” value in data set [2] turned out to be 0.4 µM. Take KFAKFAKKFAKFAKKFAKSARLSAK [KFAKFAKKFAKFAKKFAKS19ARLSAK25]: the “IC50 of cytotoxicity (MTT)” value in data set [2] was determined as 4.1 µM. For the molecule KFAKFAKKFAKFAKKFAKRARLQRR [KFAKFAKKFAKFAKKFAKR19ARLQRR25], the “IC50 of cytotoxicity (MTT)” value in data set [2] amounted to 1.6 µM.

The values are drawn from patent US20110124564A1, “NUCLEOLIN-BINDING PEPTIDES, NUCLEOLIN- BINDING LYTIC PEPTIDES, FUSION CONSTRUCTS AND METHODS OF MAKING AND USING SAME” (ESPERANCE PHARMACEUTICALS, INC., published 2011).
